Results: ChEMBL document CHEMBL4311986, “Synthesis and biological evaluation of new multi-target 3-(1H-indol-3-yl)pyrrolidine-2,5-dione derivatives with potential antidepressant effect” (Eur J Med Chem, 2019)
Where a name gives a salt, the structure may show the parent alone. Activity calls are given as the source filed them. The rule behind the calls is not given here.

How the values were obtained:
[1] = molecular target: T1, 5-hydroxytryptamine receptor 2C (Homo sapiens, UniProt P28335); test: Binding affinity to 5-HT2CR (unknown origin)
T1 sequence (P28335 whole entry): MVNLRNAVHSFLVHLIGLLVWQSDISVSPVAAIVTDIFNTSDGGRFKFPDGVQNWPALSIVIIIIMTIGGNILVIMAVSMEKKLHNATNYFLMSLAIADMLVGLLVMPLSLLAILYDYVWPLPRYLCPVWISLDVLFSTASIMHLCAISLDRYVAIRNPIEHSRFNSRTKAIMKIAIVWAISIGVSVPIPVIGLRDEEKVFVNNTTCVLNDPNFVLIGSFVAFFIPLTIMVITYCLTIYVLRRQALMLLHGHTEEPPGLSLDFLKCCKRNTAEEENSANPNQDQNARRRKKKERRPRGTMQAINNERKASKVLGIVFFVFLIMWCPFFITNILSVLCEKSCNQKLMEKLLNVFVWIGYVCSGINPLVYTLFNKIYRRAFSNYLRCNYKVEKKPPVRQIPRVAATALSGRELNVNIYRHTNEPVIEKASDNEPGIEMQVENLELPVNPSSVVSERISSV

[2] = molecular target: 5-hydroxytryptamine receptor 2B (Homo sapiens, UniProt P41595); test: Binding affinity to 5-HT2BR (unknown origin)
5-hydroxytryptamine receptor 2B, sequence (P41595 whole entry): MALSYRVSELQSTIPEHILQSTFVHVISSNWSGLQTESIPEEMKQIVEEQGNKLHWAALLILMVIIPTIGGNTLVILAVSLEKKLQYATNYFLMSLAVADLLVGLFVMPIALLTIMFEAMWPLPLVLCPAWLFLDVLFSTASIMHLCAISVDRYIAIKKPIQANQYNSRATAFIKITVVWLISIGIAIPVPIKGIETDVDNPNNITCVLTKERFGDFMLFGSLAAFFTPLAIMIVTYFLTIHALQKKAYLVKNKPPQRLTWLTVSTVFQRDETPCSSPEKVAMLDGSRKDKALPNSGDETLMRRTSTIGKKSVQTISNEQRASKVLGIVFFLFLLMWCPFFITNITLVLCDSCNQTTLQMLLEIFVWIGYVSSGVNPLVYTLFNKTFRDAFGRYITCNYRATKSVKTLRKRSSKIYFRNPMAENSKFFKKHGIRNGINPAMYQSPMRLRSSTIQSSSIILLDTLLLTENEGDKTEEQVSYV

D(2) dopamine receptor = D(2) dopamine receptor (Homo sapiens, UniProt P14416); test: Displacement of [3H]-raclopride from human D2L receptor expressed in HEK293 cells incubated for 1 hr by liquid scintillation counting method; type: cell-based
D(2) dopamine receptor, sequence (P14416 whole entry): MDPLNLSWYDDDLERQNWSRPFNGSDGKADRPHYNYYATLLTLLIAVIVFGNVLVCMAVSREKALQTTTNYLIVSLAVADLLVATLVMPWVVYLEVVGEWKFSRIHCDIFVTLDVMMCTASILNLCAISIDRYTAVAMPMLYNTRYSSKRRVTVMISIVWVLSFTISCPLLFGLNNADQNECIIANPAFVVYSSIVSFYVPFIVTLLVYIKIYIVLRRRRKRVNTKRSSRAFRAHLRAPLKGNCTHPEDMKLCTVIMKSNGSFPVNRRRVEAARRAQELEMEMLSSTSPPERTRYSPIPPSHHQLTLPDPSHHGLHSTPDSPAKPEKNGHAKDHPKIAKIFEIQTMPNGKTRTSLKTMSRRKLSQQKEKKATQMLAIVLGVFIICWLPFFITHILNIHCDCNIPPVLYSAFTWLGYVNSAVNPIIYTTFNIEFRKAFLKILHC

[3] = molecular target: 5-hydroxytryptamine receptor 7 (Homo sapiens, UniProt P34969); test: Displacement of [3H]-5-CT from human 5HT7 receptor expressed in HEK293 cells incubated for 1 hr by liquid scintillation counting method; type: cell-based
5-hydroxytryptamine receptor 7, sequence (P34969 whole entry): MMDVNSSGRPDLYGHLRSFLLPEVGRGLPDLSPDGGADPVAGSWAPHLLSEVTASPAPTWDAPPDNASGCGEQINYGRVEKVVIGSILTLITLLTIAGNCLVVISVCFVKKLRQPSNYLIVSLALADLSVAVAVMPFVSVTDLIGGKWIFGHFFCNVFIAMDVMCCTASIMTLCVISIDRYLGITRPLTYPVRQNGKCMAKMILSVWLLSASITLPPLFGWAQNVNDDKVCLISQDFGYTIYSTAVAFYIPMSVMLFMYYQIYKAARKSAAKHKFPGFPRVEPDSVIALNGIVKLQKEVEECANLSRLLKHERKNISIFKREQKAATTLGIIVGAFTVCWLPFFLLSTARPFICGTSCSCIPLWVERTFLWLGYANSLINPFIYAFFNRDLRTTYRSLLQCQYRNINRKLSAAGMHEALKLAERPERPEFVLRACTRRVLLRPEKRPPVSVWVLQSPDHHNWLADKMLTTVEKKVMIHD

[4] = molecular target: T2, 5-hydroxytryptamine receptor 1A (Homo sapiens, UniProt P08908)
T2 sequence (P08908 whole entry): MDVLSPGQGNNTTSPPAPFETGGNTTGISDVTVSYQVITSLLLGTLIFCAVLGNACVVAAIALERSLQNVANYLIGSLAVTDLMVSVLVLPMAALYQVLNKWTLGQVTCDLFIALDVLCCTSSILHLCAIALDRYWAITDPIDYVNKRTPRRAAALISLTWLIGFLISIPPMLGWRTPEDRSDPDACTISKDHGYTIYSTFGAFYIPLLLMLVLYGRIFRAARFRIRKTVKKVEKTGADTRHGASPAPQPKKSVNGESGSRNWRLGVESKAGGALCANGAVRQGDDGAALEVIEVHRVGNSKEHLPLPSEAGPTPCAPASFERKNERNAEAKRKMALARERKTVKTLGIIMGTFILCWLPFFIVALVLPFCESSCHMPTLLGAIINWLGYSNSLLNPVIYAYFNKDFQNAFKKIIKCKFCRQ

Mus musculus [5] = test: Induction of hypothermia in CD-1 mouse assessed as change in body temperature at 5 mg/kg, ip measured after 30 mins by thermometric method; type: functional, organism-based
Mus musculus [6] = test: Antidepressant-like activity in CD-1 mouse assessed as decrease in immobility time at 10 mg/kg, ip treated for 30 mins and measured for 4 mins by forced swim test; type: functional, organism-based
Mus musculus [7] = test: Induction of hypothermia in CD-1 mouse assessed as change in body temperature at 10 mg/kg, ip measured after 30 mins by thermometric method; type: functional, organism-based
Mus musculus [8] = test: Induction of hypothermia in CD-1 mouse assessed as change in body temperature at 15 mg/kg, ip measured after 30 mins by thermometric method (reference value: -0.2 to 0.4 deg C); type: functional, organism-based
Mus musculus [9] = test: Induction of hypothermia in CD-1 mouse assessed as change in body temperature at 20 mg/kg, ip measured after 30 mins by thermometric method; type: functional, organism-based
Mus musculus [10] = test: Induction of hypothermia in CD-1 mouse assessed as change in body temperature at 5 mg/kg, ip measured after 60 mins by thermometric method; type: functional, organism-based
Mus musculus [11] = test: Induction of hypothermia in CD-1 mouse assessed as change in body temperature at 10 mg/kg, ip measured after 60 mins by thermometric method; type: functional, organism-based
Mus musculus [12] = test: Induction of hypothermia in CD-1 mouse assessed as change in body temperature at 15 mg/kg, ip measured after 60 mins by thermometric method (reference value: -0.2 to 0.5 deg C); type: functional, organism-based
Mus musculus [13] = test: Induction of hypothermia in CD-1 mouse assessed as change in body temperature at 20 mg/kg, ip measured after 60 mins by thermometric method; type: functional, organism-based
Mus musculus [14] = test: Induction of hypothermia in CD-1 mouse assessed as change in body temperature at 5 mg/kg, ip measured after 90 mins by thermometric method; type: functional, organism-based
Mus musculus [15] = test: Induction of hypothermia in CD-1 mouse assessed as change in body temperature at 10 mg/kg, ip measured after 90 mins by thermometric method; type: functional, organism-based
Mus musculus [16] = test: Induction of hypothermia in CD-1 mouse assessed as change in body temperature at 15 mg/kg, ip measured after 90 mins by thermometric method (reference value: -0.3 to 0.3 deg C); type: functional, organism-based
Mus musculus [17] = test: Induction of hypothermia in CD-1 mouse assessed as change in body temperature at 20 mg/kg, ip measured after 90 mins by thermometric method; type: functional, organism-based
Mus musculus [18] = test: Induction of hypothermia in CD-1 mouse assessed as change in body temperature at 5 mg/kg, ip measured after 120 mins by thermometric method; type: functional, organism-based
Mus musculus [19] = test: Induction of hypothermia in CD-1 mouse assessed as change in body temperature at 10 mg/kg, ip measured after 120 mins by thermometric method; type: functional, organism-based
Mus musculus [20] = test: Induction of hypothermia in CD-1 mouse assessed as change in body temperature at 15 mg/kg, ip measured after 120 mins by thermometric method (reference value: -0.1 to 0.3 deg C); type: functional, organism-based
Mus musculus [21] = test: Induction of hypothermia in CD-1 mouse assessed as change in body temperature at 20 mg/kg, ip measured after 120 mins by thermometric method; type: functional, organism-based
Mus musculus [22] = test: Induction of hypothermia in CD-1 mouse assessed as change in body temperature at 10 mg/kg, ip pretreated for 30 mins with 5-HT1AR antagonist WAY100635 followed by compound treatment and measured after 30 mins by thermometric method; type: functional, organism-based
Mus musculus [23] = test: Induction of hypothermia in CD-1 mouse assessed as change in body temperature at 10 mg/kg, ip pretreated for 60 mins with 5-HT1AR antagonist WAY100635 followed by compound treatment and measured after 30 mins by thermometric method; type: functional, organism-based
[24] = Half life in human liver microsomes at 1 uM measured for 5 to 30 mins in presence of NADPH by LC-MS/MS analysis; type: ADME, Microsome
hERG (KCNH2) [25] = molecular target: T3, hERG (KCNH2) (Homo sapiens, UniProt Q12809); test: Inhibition of human ERG at 10 uM by automated patch-clamp assay relative to control
T3 sequence (Q12809 whole entry): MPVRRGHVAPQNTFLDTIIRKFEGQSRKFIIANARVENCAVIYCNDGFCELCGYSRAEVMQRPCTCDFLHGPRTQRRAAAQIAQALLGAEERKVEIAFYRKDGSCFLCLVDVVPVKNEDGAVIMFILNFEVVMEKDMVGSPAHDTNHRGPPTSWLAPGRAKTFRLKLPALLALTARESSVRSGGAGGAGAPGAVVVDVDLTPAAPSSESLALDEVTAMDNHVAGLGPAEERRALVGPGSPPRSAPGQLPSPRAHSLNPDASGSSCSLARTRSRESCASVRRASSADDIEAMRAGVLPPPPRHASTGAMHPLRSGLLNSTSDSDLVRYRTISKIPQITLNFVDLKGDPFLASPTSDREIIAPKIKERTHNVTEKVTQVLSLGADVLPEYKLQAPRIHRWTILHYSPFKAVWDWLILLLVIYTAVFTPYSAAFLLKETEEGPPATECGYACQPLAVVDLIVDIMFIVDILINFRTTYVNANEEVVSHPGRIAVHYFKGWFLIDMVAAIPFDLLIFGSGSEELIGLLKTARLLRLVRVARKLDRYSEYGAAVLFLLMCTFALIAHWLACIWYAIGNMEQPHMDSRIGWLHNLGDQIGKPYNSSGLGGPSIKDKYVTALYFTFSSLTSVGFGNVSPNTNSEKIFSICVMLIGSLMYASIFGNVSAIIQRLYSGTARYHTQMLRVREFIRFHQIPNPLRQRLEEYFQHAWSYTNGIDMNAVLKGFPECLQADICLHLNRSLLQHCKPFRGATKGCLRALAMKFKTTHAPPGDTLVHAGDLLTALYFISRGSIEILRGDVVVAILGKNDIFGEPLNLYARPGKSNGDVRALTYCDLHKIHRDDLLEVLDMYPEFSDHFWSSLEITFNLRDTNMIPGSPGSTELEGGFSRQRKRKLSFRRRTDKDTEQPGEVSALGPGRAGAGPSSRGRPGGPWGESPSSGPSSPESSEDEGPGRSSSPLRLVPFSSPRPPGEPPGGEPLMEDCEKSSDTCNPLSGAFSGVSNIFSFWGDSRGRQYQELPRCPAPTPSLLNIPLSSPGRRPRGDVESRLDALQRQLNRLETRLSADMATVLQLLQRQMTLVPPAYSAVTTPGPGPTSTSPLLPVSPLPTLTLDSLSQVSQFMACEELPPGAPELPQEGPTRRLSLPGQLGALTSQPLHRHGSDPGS

hERG (KCNH2) [26] = molecular target: T3, hERG (KCNH2); test: Inhibition of human ERG at 1 uM by automated patch-clamp assay relative to control
hERG (KCNH2) [27] = molecular target: T3, hERG (KCNH2); test: Inhibition of human ERG at 0.1 uM by automated patch-clamp assay relative to control
Mus musculus [28] = test: Antidepressant-like activity in CD-1 mouse at 10 mg/kg, ip treated for 30 mins and measured for 4 mins by forced swim test
[29] = test system: Alpha-1 adrenergic receptor (Rattus norvegicus); test: Displacement of [3H]-prazosin from rat cortex alpha1 adrenergic receptor incubated for 30 mins by microbeta scintillation counting method

CC[C@@H](CO)NC(=O)[C@@H]1C=C2c3cccc4c3c(cn4C)C[C@H]2N(C)C1 [METHYSERGIDE MALEATE]
Ki [1]: 0.794 nM

O=c1ccc2ccc(OCCCCN3CCN(c4cccc5sccc45)CC3)cc2[nH]1 [BREXPIPRAZOLE]
Ki [2]: 0.398 nM
Ki (D(2) dopamine receptor): 0.3 nM
Ki [3]: 3.7 nM
Ki [4]: 0.12 nM

O=C1CC(c2c[nH]c3ccccc23)C(=O)N1CCCCN1CCC(c2c[nH]c3ccc(F)cc23)CC1 (stereo not given)
deltaT (Mus musculus [5]): 0.3 °C
Activity (Mus musculus [6]): Active
deltaT (Mus musculus [7]): -1.4 °C
deltaT (Mus musculus [8]): -2 °C
deltaT (Mus musculus [9]): -2.2 °C
deltaT (Mus musculus [10]): 0.4 °C
deltaT (Mus musculus [11]): -0.5 °C
deltaT (Mus musculus [12]): -0.8 °C
deltaT (Mus musculus [13]): -1 °C
deltaT (Mus musculus [14]): 0.5 °C
deltaT (Mus musculus [15]): 0.1 °C
deltaT (Mus musculus [16]): 0 °C
deltaT (Mus musculus [17]): -0.4 °C
deltaT (Mus musculus [18]): 0.2 °C
deltaT (Mus musculus [19]): 0.2 °C
deltaT (Mus musculus [20]): 0.3 °C
deltaT (Mus musculus [21]): -0.3 °C
deltaT (Mus musculus [22]): -0.1 °C
deltaT (Mus musculus [23]): 0.7 °C
half-life at 1 µM [24]: 11.5 min
inhibition at 10 µM (hERG (KCNH2) [25]): 96.4%
inhibition at 1 µM (hERG (KCNH2) [26]): 84.7%
inhibition at 0.1 µM (hERG (KCNH2) [27]): 45.1%
Activity (Mus musculus [28]): Active
Activity [29]: Active
